Counter-ions that a name gives are not always drawn.
| Structure (SMILES) | melting point [°C] |
| --- | --- |
| O=C(Nc1cccc2c1C(=O)c1c-2n[nH]c1-c1ccc(C(=O)N2CCC[C@H]2CNc2ccccc2)s1)NN1CCOCC1 (as salt: TFA) [Example CLXXXVII, 3-(5-(2(S)-(phenylaminomethyl)pyrrolidinocarbonyl)-2-thienyl)-5-(morpholinocarbamoylamino)indeno[1,2-c]pyrazol-4-one] | > 300 |
| CN(C)c1ccc(CC(=O)N2CCC(c3[nH]nc4c3C(=O)c3c(NC(=O)NN5CCOCC5)cccc3-4)CC2)cc1 (as salt: TFA) [Example CCXCV, 3-(1-(4-(dimethylamino)benzylcarbonyl)piperidin-4-yl)-5-(morpholinocarbamoylamino)indeno[1,2-c]pyrazol-4-one] | 107 |
| COc1ccc(-c2[nH]nc3c2C(=O)c2c(NC(=O)CN4CCC(O)CC4)cccc2-3)cc1 [Example LXXIII, 3-(4-methoxyphenyl)-5-(4-hydroxypiperidinoacetamido)indeno[1,2-c]pyrazol-4-one] | > 300 |
| COc1ccc(-c2[nH]nc3c2C(=O)c2c(NC(=O)CN4CCC(C(N)=O)CC4)cccc2-3)cc1 [Example LXXII, 3-(4-methoxyphenyl)-5-(4-carbamoylpiperidinoacetamido)indeno[1,2-c]pyrazol-4-one] | > 300 |
| CC(C)(C)OC(=O)N1CCN(C(=O)c2ccc(-c3[nH]nc4c3C(=O)c3c(NC(=O)NN5CCOCC5)cccc3-4)s2)CC1 (as salt: TFA) [Example CLIV, 3-(5-(4-(t-butoxycarbonyl)piperazinocarbonyl)-2-thienyl)-5-(morpholinocarbamoylamino)indeno[1,2-c]pyrazol-4-one] | 225 |
| O=CNc1cccc2c1C(=O)c1c-2n[nH]c1-c1ccncc1 [Example L, 3-(4-pyridyl)-5-(formamido)indeno [1,2-c]pyrazol-4-one] | > 300 |
| COc1ccc(-c2[nH]nc3c2C(=O)c2c(NC(=O)Cc4ccc(NC(=O)CN(C)C)cc4)cccc2-3)cc1 [Example XXXIX, 3-(4-methoxyphenyl)-5-((4-((N,N-dimethylamino)methylcarbonylamino)phenyl)acetamido) indeno[1,2-c]pyrazol-4-one] | > 300 |
| O=C(Nc1cccc2c1C(=O)c1c-2n[nH]c1-c1ccc(N2CCNCC2)cc1)NN1CCN(CCO)CC1 (as salt: TFA) [Example CCXXVIII, 3-(4-piperazinophenyl)-5-((4-(2-hydroxyethyl)piperazino)carbamoylamino)indeno[1,2-c]pyrazol-4-one] | 279 |
| COc1ccc(-c2[nH]nc3c2C(=O)c2c(NC(=O)Cc4cccc(OC)c4)cccc2-3)cc1 [Example XI, 3-(4-methoxyphenyl)-5-((3-methoxyphenyl)acetamido)indeno[1,2-c]pyrazol-4-one] | > 300 |
| CN(C)NC(=O)Nc1cccc2c1C(=O)c1c-2n[nH]c1-c1ccc(N2CCNCC2)cc1 (as salt: TFA) [Example CCXXI, 3-(4-piperazinophenyl)-5-((N,N-dimethylamino)carbamoylamino)indeno[1,2-c]pyrazol-4-one] | 238 |
| CC(C)(C)OC(=O)NCCCC(=O)N1CCC(c2[nH]nc3c2C(=O)c2c(NC(=O)NN4CCOCC4)cccc2-3)CC1 [Example CCLXXVI, 3-(1-(3-(t-butoxycarbonylamino)propylcarbonyl)piperidin-4-yl)-5-(morpholinocarbamoylamino)indeno[1,2-c]pyrazol-4-one] | 73 |
| CC(=O)Nc1cccc2c1C(=O)c1c-2n[nH]c1-c1ccncc1 [Example XLIX, 3-(4-pyridyl)-5-(acetamido)indeno [1,2-c]pyrazol-4-one] | > 300 |
| CN(C)CC(=O)Nc1cccc2c1C(=O)c1c-2n[nH]c1-c1ccc(N2CCNCC2)cc1 (as salt: TFA) [Example CCXIV, 3-(4-piperazinophenyl)-5-((N,N-dimethylamino)acetamido)indeno[1,2-c]pyrazol-4-one] | 243 |
| O=C(Nc1cccc2c1C(=O)c1c-2n[nH]c1-c1ccc(C(=O)N2CCC(N3CCCC3)CC2)s1)NN1CCOCC1 (as salt: TFA) [Example CLIX, 3-(5-(4-pyrrolidinopiperidinocarbonyl)-2-thienyl)-5-(morpholinocarbamoylamino)indeno[1,2-c]pyrazol-4-one] | 228 |
| CN(C)C1CCCC(C(=O)N2CCC(c3[nH]nc4c3C(=O)c3c(NC(=O)NN5CCOCC5)cccc3-4)CC2)C1 (stereo not drawn) (as salt: TFA) [Example CCXCI, 3-(1-(3-(dimethylamino)cyclohexylcarbonyl)piperidin-4-yl)-5-(morpholinocarbamoylamino)indeno[1,2-c]pyrazol-4-one] | 153 |
| CC(C)(C)OC(=O)NC1CCCC(NC(=O)c2ccc(-c3[nH]nc4c3C(=O)c3c(NC(=O)NN5CCOCC5)cccc3-4)s2)C1 (stereo not drawn) (as salt: TFA) [Example CLXXI, 3-(5-((3-(t-butoxycarbonylamino)cyclohexyl)aminocarbonyl)-2-thienyl)-5-(morpholinocarbamoylamino)indeno[1,2-c]pyrazol-4-one] | > 300 |
| COc1ccc(-c2[nH]nc3c2C(=O)c2c(NC=O)cccc2-3)cc1 [Example XLVII, 3-(4-methoxyphenyl)-5-(formamido)indeno[1,2-c]pyrazol-4-one] | 280 |
| COC[C@H]1CCCN1NC(=O)Nc1cccc2c1C(=O)c1c-2n[nH]c1-c1ccc(C(=O)O)s1 (as salt: TFA) [Example CCII, 3-(5-carboxyl-2-thienyl)-5-(2(R)-(methoxymethyl)pyrrolidinocarbamoylamino)indeno[1,2-c]pyrazol-4-one] | 258 |
| CC(C)(C)OC(=O)NC1CCC(C(=O)N2CCC(c3[nH]nc4c3C(=O)c3c(NC(=O)NN5CCOCC5)cccc3-4)CC2)CC1 (stereo not drawn) (as salt: TFA) [Example CCLXXXV, 3-(1-(4-(t-butoxycarbonylamino)cyclohexylcarbonyl)piperidin-4-yl)-5-(morpholinocarbamoylamino)indeno[1,2-c]pyrazol-4-one] | 210 |
| CCC(=O)Nc1cccc2c1C(=O)c1c-2n[nH]c1-c1ccc(OC)cc1 [Example V, 3-(4-methoxyphenyl)-5-(propanamido)indeno[1,2-c]pyrazol-4-one] | 287 |
| CC(C)c1[nH]nc2c1C(=O)c1c(NC(=O)CN3CCC(CN)CC3)cccc1-2 [Example CXVIII, 3-(i-propyl)-5-(4-(aminomethyl)piperidinoacetamido)indeno [1,2-c]pyrazol-4-one] | 218 |

The next lines start with the values.

| melting point [°C] | Structure (SMILES) |
| --- | --- |
| 210 | CCN(CC)CC1CCCCN1C(=O)c1ccc(-c2[nH]nc3c2C(=O)c2c(NC(=O)NN4CCOCC4)cccc2-3)s1 (stereo not drawn) (as salt: TFA) [Example CLXXIII, 3-(5-(2-(N,N-diethylaminomethyl)piperidinocarbonyl)-2-thienyl)-5-(morpholinocarbamoylamino)indeno[1,2-c]pyrazol-4-one] |
| 244 | CCc1[nH]nc2c1C(=O)c1c(NC(=O)NN3CCN(C)CC3)cccc1-2 (as salt: TFA) [Example CCLVI, 3-ethyl-5-(4-methylpiperazinocarbamoylamino)indeno[1,2-c]pyrazol-4-one] |
| > 300 | CC(=O)Nc1cccc2c1C(=O)c1c-2n[nH]c1-c1ccc(N2CCOCC2)cc1 [Example LVIII, 3-(4-morpholinophenyl)-5-(acetamido)indeno[1,2-c]pyrazol-4-one] |
| 264 | O=C(Nc1cccc2c1C(=O)c1c-2n[nH]c1-c1ccc(C(=O)NC2CCCCC2)s1)NN1CCOCC1 (as salt: TFA) [Example CLXI, 3-(5-cyclohexylaminocarbonyl-2-thienyl)-5-(morpholinocarbamoylamino)indeno[1,2-c]pyrazol-4-one] |
| > 300 | NC1CCCC(NC(=O)c2ccc(-c3[nH]nc4c3C(=O)c3c(NC(=O)NN5CCOCC5)cccc3-4)s2)C1 (stereo not drawn) (as salt: TFA) [Example CLXX, 3-(5-((3-aminocyclohexyl)aminocarbonyl)-2-thienyl)-5-(morpholinocarbamoylamino)indeno[1,2-c]pyrazol-4-one] |
| > 300 | O=C(Nc1cccc2c1C(=O)c1c-2n[nH]c1-c1ccc(C(=O)[C@]23CN[C@H](CN2)C3)s1)NN1CCOCC1 (as salt: TFA) [Example CLVI, 3-(5-(((1S,4S)-(+)-2,5-diazabicyclo[2.2.1]heptyl)carbonyl)-2-thienyl)-5-(morpholinocarbamoylamino)indeno [1,2-c]pyrazol-4-one] |
| 249 | CCOC(=O)c1ccc(-c2[nH]nc3c2C(=O)c2c(NC(=O)NN4CCN(C)CC4)cccc2-3)s1 [Example CXXII, 3-(5-carboethoxy-2-thienyl)-5-((4-methylpiperazino)carbamoylamino)indeno [1,2-c]pyrazol-4-one] |
| 270 | CN1CCN(NC(=O)Nc2cccc3c2C(=O)c2c-3n[nH]c2-c2ccc(C(=O)O)s2)CC1 [Example CXXIII, 3-(5-carboxyl-2-thienyl)-5-((4-methylpiperazino)carbamoylamino)indeno [1,2-c]pyrazol-4-one] |
| 301 | Cn1ccc(-c2[nH]nc3c2C(=O)c2c(NC(=O)NN4CCOCC4)cccc2-3)c1 [Example CC, 3-(1-methyl-3-pyrrolyl)-5-(morpholinocarbamoylamino)indeno[1,2-c]pyrazol-4-one] |
| 264 | CN(C)[C@H]1CCN(C(=O)c2ccc(-c3[nH]nc4c3C(=O)c3c(NC(=O)NN5CCOCC5)cccc3-4)s2)C1 (as salt: TFA) [Example CLXXXII, 3-(5-(3(S)-(N,N-dimethylamino)pyrrolidinocarbonyl)-2-thienyl)-5-(morpholinocarbamoylamino)indeno[1,2-c]pyrazol-4-one] |
| 245 | CN1CCN(c2ccc(-c3[nH]nc4c3C(=O)c3c(NC(=O)NN5CCOCC5)cccc3-4)cc2)CC1 (as salt: TFA) [Example CCXVIII, 3-(4-(4-methylpiperazino)phenyl)-5-(morpholinocarbamoylamino)indeno[1,2-c]pyrazol-4-one] |
| 263 | O=C(Nc1cccc2c1C(=O)c1c-2n[nH]c1-c1ccc(N2CCNCC2)cc1)NN1CCOCC1 (as salt: TFA) [Example CCXI, 3-(4-piperazinophenyl)-5-(morpholinocarbamoylamino)indeno[1,2-c]pyrazol-4-one] |
